{"source": "paper PMC12647645", "about": "“Structural interactions of BWC0977 with Klebsiella pneumoniae topoisomerase IV and biochemical basis of its broad-spectrum activity” (Communications Biology, 2025)", "molecules": {"B1": {"name": "26-bp palindromic DNA homoduplex (dsDNA)", "DNA 1": "TTACGTTGTATGATCATACAACGTAA", "DNA 2": "TTACGTTGTATGATCATACAACGTAA"}}, "key": {"[1]": {"molecular_target": "P. aeruginosa topoisomerase IV (Pseudomonas aeruginosa, UniProt Q9HUJ8+Q9HUK1)", "experiment": "Topoisomerase IV decatenation assay, P. aeruginosa", "type": "biochemical", "details": "for Topo IV decatenation inhibition response: P. aeruginosa topo IV", "procedure": "(§1) Topoisomerase IV decatenation reactions were performed using 2.5 nM E. coli enzyme and 60 ng kinetoplast DNA (kDNA) in an assay buffer containing 50 mM HEPES-KOH (pH 7.6), 100 mM potassium glutamate, 10 mM magnesium acetate, 10 mM DTT, 1 mM ATP, and 50 μg/mL albumin. Assays with P. aeruginosa topoisomerase IV (3 nM) were conducted in a similar buffer but with 50 mM HEPES-KOH (pH 7.9), 100 mM potassium glutamate, 6 mM magnesium acetate, 6 mM DTT, 1 mM ATP, 2 mM spermidine, and 50 μg/mL albumin. For S. aureus topoisomerase IV assay, the reactions contained 4 nM enzyme in an assay buffer composed of 50 mM Tris-HCl (pH 7.5), 5 mM MgCl₂, 5 mM DTT, 1.5 mM ATP, 350 mM potassium glutamate, and 0.05 mg/mL albumin. The procedures followed were consistent with those used in the supercoiling assays. Decatenated minicircles were resolved on 0.8% agarose gels, while the kDNA substrate remained in the wells. Gels were stained with 0.8 μg/mL ethidium bromide solution for 10 min, followed by destaining. DNA bands were visualized using a gel documentation system, and compound inhibition analysis was carried out using the same procedures described for the supercoiling assays."}, "[2]": {"system": "K. pneumoniae", "details": "ref 6 (Hameed P et al., 2024); cited from earlier work"}, "[3]": {"molecular_target": "S. aureus topoisomerase IV (Staphylococcus aureus, UniProt P0C1S7+P0C1U9)", "experiment": "biochemical", "details": "source data Fig 2C; for Topo IV decatenation inhibition response: S. aureus topo IV", "procedure": "as §1, with “Assays” for “Topoisomerase IV decatenation reactions were performed using 2.5 nM E. coli enzyme and 60 ng kinetoplast DNA (kDNA) in an assay buffer containing 50 mM HEPES-KOH (pH 7.6), 100 mM potassium glutamate, 10 mM magnesium acetate, 10 mM DTT, 1 mM ATP, and 50 μg/mL albumin. Assays”"}, "[4]": {"system": "A. baumannii", "parameters": "method as in ref 6 (Hameed P et al., 2024)", "details": "ref 6 (Hameed P et al., 2024); cited from earlier work"}, "[5]": {"system": "P. aeruginosa", "parameters": "method as in ref 6 (Hameed P et al., 2024)", "details": "ref 6 (Hameed P et al., 2024); cited from earlier work"}, "[6]": {"molecular_target": "T1, E. coli topoisomerase IV (Escherichia coli, UniProt P0AFI2+P20083)", "T1 construct": "purchased Inspiralis", "T1 sequence (P20083 whole entry)": "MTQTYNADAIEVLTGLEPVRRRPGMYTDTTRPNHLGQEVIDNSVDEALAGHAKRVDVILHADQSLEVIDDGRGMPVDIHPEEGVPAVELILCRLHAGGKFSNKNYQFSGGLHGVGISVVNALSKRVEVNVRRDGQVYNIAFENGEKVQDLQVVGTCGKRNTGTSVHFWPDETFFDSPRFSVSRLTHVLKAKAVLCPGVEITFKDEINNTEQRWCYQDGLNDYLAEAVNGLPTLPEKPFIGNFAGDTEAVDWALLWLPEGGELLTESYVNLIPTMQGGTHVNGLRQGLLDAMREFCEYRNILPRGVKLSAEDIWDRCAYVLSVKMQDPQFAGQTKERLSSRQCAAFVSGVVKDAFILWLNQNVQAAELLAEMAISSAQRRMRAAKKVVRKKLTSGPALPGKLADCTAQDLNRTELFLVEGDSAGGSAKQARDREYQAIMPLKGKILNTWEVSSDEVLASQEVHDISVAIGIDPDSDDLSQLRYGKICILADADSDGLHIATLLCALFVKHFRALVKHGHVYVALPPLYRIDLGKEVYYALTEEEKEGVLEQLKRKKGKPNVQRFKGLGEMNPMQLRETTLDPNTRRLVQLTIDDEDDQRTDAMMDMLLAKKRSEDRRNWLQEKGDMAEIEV", "T1 sequence (P0AFI2 whole entry)": "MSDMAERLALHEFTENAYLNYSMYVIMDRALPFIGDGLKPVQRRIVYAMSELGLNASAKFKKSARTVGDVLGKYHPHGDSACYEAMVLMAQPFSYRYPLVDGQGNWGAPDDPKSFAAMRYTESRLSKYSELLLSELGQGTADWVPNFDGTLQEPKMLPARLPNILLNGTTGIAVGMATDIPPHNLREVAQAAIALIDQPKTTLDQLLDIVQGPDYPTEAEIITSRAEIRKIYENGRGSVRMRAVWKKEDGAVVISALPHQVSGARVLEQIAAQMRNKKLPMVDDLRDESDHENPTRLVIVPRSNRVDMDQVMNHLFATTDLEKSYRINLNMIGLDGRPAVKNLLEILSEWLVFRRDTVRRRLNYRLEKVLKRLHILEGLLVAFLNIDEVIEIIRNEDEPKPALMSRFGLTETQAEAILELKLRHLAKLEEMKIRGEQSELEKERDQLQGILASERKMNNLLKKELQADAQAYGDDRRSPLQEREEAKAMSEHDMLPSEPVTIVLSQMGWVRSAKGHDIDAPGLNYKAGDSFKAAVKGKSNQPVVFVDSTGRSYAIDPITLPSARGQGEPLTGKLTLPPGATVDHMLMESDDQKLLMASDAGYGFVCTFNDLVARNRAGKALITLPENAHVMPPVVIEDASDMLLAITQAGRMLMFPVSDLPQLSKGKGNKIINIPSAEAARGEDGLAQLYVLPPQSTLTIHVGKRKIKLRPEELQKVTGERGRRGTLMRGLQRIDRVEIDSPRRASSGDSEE", "experiment": "biochemical", "type": "biochemical", "details": "E. coli topo IV, source data Fig 2A"}, "[7]": {"system": "E. coli ATCC 25922", "experiment": "In vitro spontaneous resistance frequency", "type": "cell-based", "details": "4× MIC", "procedure": "(§2) Spontaneous resistance frequencies to BWC0977 were evaluated in E. coli ATCC 25922, P. aeruginosa ATCC 27853, and A. baumannii ATCC 19606. Mid-logarithmic phase cultures (~10^9 CFU/mL) were plated onto Luria-Bertani agar containing BWC0977 at 4×, 8×, and 16× the respective MICs. Plates were incubated at 37 °C for 24–36 h, and resistance frequencies were estimated by counting colony-forming units (CFUs) on the drug-containing plates. MICs of the isolated colonies were determined, and the gyrA, gyrB, parC, and parE genes were sequenced to assess for target-site mutations."}, "[8]": {"system": "A. baumannii ATCC 19606", "experiment": "In vitro spontaneous resistance frequency", "type": "cell-based", "details": "colonies selected at 4× MIC of the same compound", "procedure": "as §2"}, "[9]": {"molecular_target": "K. pneumoniae fusion-truncated topoisomerase IV (ParE30-(Glu-Ser)-ParC55) (Klebsiella pneumoniae)", "experiment": "crystal structure; ternary complex of ParEC core dimer, 26-bp DNA duplex and BWC0977 (23 uM ParEC core: 28 uM dsDNA: 200 uM BWC0977); sitting-drop vapor diffusion at 20 °C, 17% PEG 3350, 0.1 M sodium formate, 100 mM Bis-Tris propane pH 8.5; 3.05 Å"}, "[10]": {"molecular_target": "ParEC core (ParE-ES-ParC fusion, topoisomerase IV) (Klebsiella pneumoniae, UniProt A6TE19 400-631+=ES+A6TE12:1-488, internal_change)", "experiment": "X-ray crystallography (3.05 Å); BWC0977 (one molecule intercalated between DNA bases +2 and +3); Crystallization conditions not in material; protein in 20 mM Tris-HCl pH 7.5, 100 mM NaCl, 2 mM TCEP (6 mg/mL); DNA in nuclease-free water", "details": "protein: recombinant; tags: C-terminal His6; chain copies: 2; blunt; self-complementary, 2 copies of the strand"}}, "note": "Values joined by “and” are separate entries in the source; they are usually repeats but may differ in a detail not shown here. Equal values may be shown once."}
{"molecule": "O=C(O)c1cn(C2CC2)c2cc(N3CCNCC3)c(F)cc2c1=O", "note": "[Ciprofloxacin, reference compound]", "values": [{"measurement": "IC50", "setting": "[1]", "result": 31.2, "unit": "µM"}, {"measurement": "Topo IV decatenation inhibition response", "setting": "[1]; compound 0.293 μM, source data Fig 2B, 0.293 µM", "result": 3.42}, {"measurement": "Topo IV decatenation inhibition response", "setting": "[1]; compound 9.375 μM, source data Fig 2B, 9.375 µM", "result": 6.96}, {"measurement": "Topo IV decatenation inhibition response", "setting": "[1]; compound 37.5 μM, source data Fig 2B, 37.5 µM", "result": "41.68 and 65.61"}, {"measurement": "Topo IV decatenation inhibition response", "setting": "[1]; compound 75 μM, source data Fig 2B, 75 µM", "result": "53.28 and 77.23"}, {"measurement": "Topo IV decatenation inhibition response", "setting": "[1]; compound 150 μM, source data Fig 2B, 150 µM", "result": 73.28}, {"measurement": "inhibition at 0.293 µM", "setting": "[1]; read-out: Topo IV decatenation inhibition response, P. aeruginosa topo IV, compound 0.293 μM, source data Fig 2B", "result": 3.54, "unit": "%"}, {"measurement": "inhibition at 9.375 µM", "setting": "[1]; read-out: Topo IV decatenation inhibition response, P. aeruginosa topo IV, compound 9.375 μM, source data Fig 2B", "result": 4.24, "unit": "%"}, {"measurement": "inhibition at 150 µM", "setting": "[1]; read-out: Topo IV decatenation inhibition response, P. aeruginosa topo IV, compound 150 μM, source data Fig 2B", "result": 58.3, "unit": "%"}, {"measurement": "MIC90 against diverse global isolates", "setting": "[2]", "result": "> 32", "unit": "µg/mL"}, {"measurement": "Topo IV decatenation inhibition response", "setting": "[3]; compound 0.823 μM, 0.823 µM", "result": 25.54}, {"measurement": "Topo IV decatenation inhibition response", "setting": "[3]; compound 2.469 μM, 2.469 µM", "result": 28.07}, {"measurement": "Topo IV decatenation inhibition response", "setting": "[3]; compound 7.407 μM, 7.407 µM", "result": 38.66}, {"measurement": "Topo IV decatenation inhibition response", "setting": "[3]; compound 22.222 μM, 22.222 µM", "result": 96.26}, {"measurement": "Topo IV decatenation inhibition response", "setting": "[3]; compound 66.67 μM, 66.67 µM", "result": 92.59}, {"measurement": "Topo IV decatenation inhibition response", "setting": "[3]; compound 200 μM, 200 µM", "result": 98.71}, {"measurement": "inhibition at 0.823 µM", "setting": "[3]; read-out: Topo IV decatenation inhibition response, S. aureus topo IV, compound 0.823 μM", "result": 21.1, "unit": "%"}, {"measurement": "inhibition at 2.469 µM", "setting": "[3]; read-out: Topo IV decatenation inhibition response, S. aureus topo IV, compound 2.469 μM", "result": 31.3, "unit": "%"}, {"measurement": "inhibition at 7.407 µM", "setting": "[3]; read-out: Topo IV decatenation inhibition response, S. aureus topo IV, compound 7.407 μM", "result": 27.1, "unit": "%"}, {"measurement": "inhibition at 22.222 µM", "setting": "[3]; read-out: Topo IV decatenation inhibition response, S. aureus topo IV, compound 22.222 μM", "result": 99.1, "unit": "%"}, {"measurement": "inhibition at 66.67 µM", "setting": "[3]; read-out: Topo IV decatenation inhibition response, S. aureus topo IV, compound 66.67 μM", "result": 97.3, "unit": "%"}, {"measurement": "inhibition at 200 µM", "setting": "[3]; read-out: Topo IV decatenation inhibition response, S. aureus topo IV, compound 200 μM", "result": 99, "unit": "%"}, {"measurement": "MIC90 against diverse global isolates", "setting": "[4]", "result": "> 32", "unit": "µg/mL"}, {"measurement": "MIC90 against diverse global isolates", "setting": "[5]", "result": 16, "unit": "µg/mL"}, {"measurement": "Topo IV decatenation inhibition response", "setting": "[6]; compound 2.34375 μM, 2.34375 µM", "result": 0}, {"measurement": "Topo IV decatenation inhibition response", "setting": "[6]; compound 4.6875 μM, 4.6875 µM", "result": "17.91 and 12.76"}, {"measurement": "inhibition at 4.6875 µM", "setting": "[6]; compound 4.6875 μM, read-out: Topo IV decatenation inhibition response", "result": 12.2, "unit": "%"}, {"measurement": "Topo IV decatenation inhibition response", "setting": "[6]; compound 9.375 μM, 9.375 µM", "result": "51.63 and 50.29"}, {"measurement": "inhibition at 9.375 µM", "setting": "[6]; compound 9.375 μM, read-out: Topo IV decatenation inhibition response", "result": 43.7, "unit": "%"}, {"measurement": "Topo IV decatenation inhibition response", "setting": "[6]; compound 18.75 μM, 18.75 µM", "result": "65.07 and 61.86"}, {"measurement": "inhibition at 18.75 µM", "setting": "[6]; compound 18.75 μM, read-out: Topo IV decatenation inhibition response", "result": 76.9, "unit": "%"}, {"measurement": "Topo IV decatenation inhibition response", "setting": "[6]; compound 37.5 μM, 37.5 µM", "result": "82.71 and 68.2 and 60.49"}, {"measurement": "Topo IV decatenation inhibition response", "setting": "[6]; compound 75 μM, 75 µM", "result": "75.94 and 67.64"}, {"measurement": "inhibition at 75 µM", "setting": "[6]; compound 75 μM, read-out: Topo IV decatenation inhibition response", "result": 84.2, "unit": "%"}, {"measurement": "Topo IV decatenation inhibition response", "setting": "[6]; compound 150 μM, 150 µM", "result": "82.92 and 70.66 and 58.85"}, {"measurement": "resistance frequency", "setting": "[7]", "result": "5 × 10^−9"}, {"measurement": "MIC increase of resistant colonies", "setting": "[8]", "result": "4- to 32 fold"}]}
{"molecule": "K. pneumoniae fusion-truncated topoisomerase IV (ParE30-(Glu-Ser)-ParC55) (enzyme)", "values": [{"measurement": "stoichiometry N", "setting": "[9]", "result": 2}]}
{"molecule": "B1", "values": [{"measurement": "binding result", "setting": "[10]", "result": "binds"}]}
